Assay [1] has as its target T1, human enzyme NAMPT (full length) (Homo sapiens, UniProt P43490).
T1 construct: human enzyme NAMPT (full length)
The assay can be described thus: NMN fluorescence biochemical assay (stimulation of NMN synthesis by NAMPT). To be noted: for EC50: concentration giving half-maximal activation, read-out: Enzymatic EC50; for Enzymatic Emax: fold change of maximal activation compared to DMSO. A digest of the protocol:
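Full-length human NAMPT (100 nM) was preincubated 15 min at 37 °C with compound in 50 mM Tris-HCl pH 7.5, 10 mM MgCl2, 2 mM DTT, then reacted 1 h at 37 °C with 50 μM NAM, 100 μM PRPP, 4 mM ATP (stated solution concentrations). NMN was derivatised with acetophenone/KOH then formic acid and read at Ex/Em 382/445 nm; EC50 and Emax (fold over DMSO) reported.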

The subject of assay [2] is endogenous NAMPT in U2OS cells. As to the kind of experiment: Cellular NAD+ modulation assay (NAD/NADH-Glo, U2OS cells). The settings on record: Homo sapiens; for maximal fold induction: read-out: Cellular Emax. Type of assay: cell-based. A digest of the protocol:
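NAD/NADH-Glo luminescence quantified NAD+ after acid treatment (60 °C, 15 min) and neutralization of DTAB lysates. Beforehand, U2OS cells seeded 16 h earlier received compound concentration series for 24 h at 37 °C. Values given as half-maximal activation concentration (EC50) and maximal fold change versus DMSO (Emax).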

Setting [3] is: 24 hours incubation with compound.
Where [4] appears, read: NMN fluorescence assay, purified human NAMPT 100 nM.
[5] abbreviates: 24 hours incubation, cellular NAD+.

Read-outs that look alike come from different tables or passages of the source.

The record followed here is patent US20260078130A1, “NAMPT MODULATORS, PREPARATIONS, AND USES THEREOF” (SIRONAX LTD., priority 2022, published 2026).

T1 sequence (P43490 whole entry): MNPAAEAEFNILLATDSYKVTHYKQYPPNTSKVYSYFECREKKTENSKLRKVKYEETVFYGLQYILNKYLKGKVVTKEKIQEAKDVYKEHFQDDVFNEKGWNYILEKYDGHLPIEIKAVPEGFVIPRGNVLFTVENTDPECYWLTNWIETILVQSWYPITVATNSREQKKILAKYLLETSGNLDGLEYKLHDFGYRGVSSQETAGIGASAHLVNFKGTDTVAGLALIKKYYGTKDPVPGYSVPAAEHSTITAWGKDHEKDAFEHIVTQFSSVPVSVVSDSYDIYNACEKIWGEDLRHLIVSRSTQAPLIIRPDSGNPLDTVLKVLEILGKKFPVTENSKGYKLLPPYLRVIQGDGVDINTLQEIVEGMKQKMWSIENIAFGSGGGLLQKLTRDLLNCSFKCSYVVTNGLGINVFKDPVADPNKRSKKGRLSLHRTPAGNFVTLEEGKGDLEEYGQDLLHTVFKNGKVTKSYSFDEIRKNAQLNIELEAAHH

For orientation: EC50 means the concentration at which the effect is half-maximal. Consider `O=C1c2ccccc2CCN1Cc1ccc(O)cc1` [Compound 2, 2-(4-hydroxybenzyl)-3,4-dihydroisoquinolin-1(2H)-one], for which the EC50 in assay [1] (NMN synthesis by purified human NAMPT (100 nM)) and in assay [2] (setting [3]) was 500 to 5000 nM each time. The “Enzymatic Emax” value in assay [1] is recorded as “A (A>3)”. For the same molecule, in assay [2] (setting [3]), the maximal fold induction is more than 1.5.

Turning to `Cn1ncc(Cl)c1CC1c2cc(Cl)ncc2C(=O)N1CC1CC2(CNC(=O)O2)C1` (stereo not drawn) [Compound 524, 2-((6-chloro-1-((4-chloro-1-methyl-1H-pyrazol-5-yl)methyl)-3-oxo-1,3-dihydro-2H-pyrrolo[3,4-c]pyridin-2-yl)methyl)-5-oxa-7-azaspiro[3.4]octan-6-one], the concentration for a half-maximal effect (EC50) in assay [1] (setting [4]) was not below 5000 nM. Moreover, the “Enzymatic Emax” value in assay [1] was “C (2≥C)”. Also, in assay [2] (setting [5]), the EC50 lay within 500 to 5000 nM and the maximal fold induction is more than 1.5.

In the case of `Cc1nnn2cc(CN3C(=O)c4ccccc4C3Cc3c(Cl)cnn3C)ccc12` (stereo not drawn) [Compound 627, 3-((4-chloro-1-methyl-1H-pyrazol-5-yl)methyl)-2-((3-methyl-[1,2,3]triazolo[1,5-a]pyridin-6-yl)methyl)isoindolin-1-one], the half-maximal effective concentration (EC50) in assay [1] (setting [4]) was not below 5000 nM; in assay [2] (setting [5]), 500 to 5000 nM. Moreover, in assay [1], the “Enzymatic Emax” value is recorded as “B (3≥B>2)”. Besides, in assay [2] (setting [5]), the maximal fold induction lay within 1.2 to 1.5.

On to `COc1ccc(CN2C(Cc3c(Cl)cnn3C)c3ccccc3S2(=O)=O)cc1` (stereo not drawn) [Compound 641, 3-((4-chloro-1-methyl-1H-pyrazol-5-yl)methyl)-2-(4-methoxybenzyl)-2,3-dihydrobenzo[d]isothiazole 1,1-dioxide], for which, in assay [1] (setting [4]), the EC50 is not below 5000 nM. Further, in assay [1], the “Enzymatic Emax” value was “A (A>3)”. In addition, in assay [2] (setting [5]), the EC50 was less than 500 nM and the maximal fold induction is 1.2 to 1.5.

Take `Cc1ccnc(C#N)c1CC1c2ccccc2C(=O)N1C/C=C/c1c[nH]nn1` (stereo not drawn) [Compound 409, (E)-3-((2-(3-(1H-1,2,3-triazol-4-yl)allyl)-3-oxoisoindolin-1-yl)methyl)-4-methylpicolinonitrile]: the EC50 in assay [1] (setting [4]) is less than 500 nM. Further, in assay [1], the “Enzymatic Emax” value is reported as “B (3≥B>2)”. Moreover, in assay [2] (setting [5]), the half-maximal effective concentration (EC50) was less than 500 nM and the maximal fold induction is more than 1.5.

As for `Cn1ccc(Cl)c(CC2c3ccccc3C(=O)N2CC2CC3(CNC(=O)O3)C2)c1=O` (stereo not drawn) [Compound 480, 2-((1-((4-chloro-1-methyl-2-oxo-1,2-dihydropyridin-3-yl)methyl)-3-oxoisoindolin-2-yl)methyl)-5-oxa-7-azaspiro[3.4]octan-6-one], in assay [1] (setting [4]), the EC50 was less than 500 nM. The “Enzymatic Emax” value in assay [1] was “B (3≥B>2)”. Also, in assay [2] (setting [5]), the 50% effective concentration (EC50) is less than 500 nM and the maximal fold induction was more than 1.5.

`COc1ccc(CN2C(=O)c3ccc(Br)cc3C2Cc2c(Cl)cnn2C)cn1` (stereo not drawn) [Compound 622, 5-bromo-3-((4-chloro-1-methyl-1H-pyrazol-5-yl)methyl)-2-((6-methoxypyridin-3-yl)methyl)isoindolin-1-one]: the 50% effective concentration (EC50) is not below 5000 nM in assay [1] (setting [4]) and 500 to 5000 nM in assay [2] (setting [5]). In assay [1], the “Enzymatic Emax” value is on record as “A (A>3)”. Besides, in assay [2] (setting [5]), the maximal fold induction was more than 1.5.

Consider `Cn1cnc(Cl)c1CC1c2ccccc2C(=O)N1CC1CC2(CNC(=O)O2)C1` (stereo not drawn) [Compound 468, 2-((1-((4-chloro-1-methyl-1H-imidazol-5-yl)methyl)-3-oxoisoindolin-2-yl)methyl)-5-oxa-7-azaspiro[3.4]octan-6-one], for which the concentration for a half-maximal effect (EC50) in assay [1] (setting [4]) and in assay [2] (setting [5]) was 500 to 5000 nM in each case. Moreover, the “Enzymatic Emax” value in assay [1] is listed as “B (3≥B>2)”. The maximal fold induction in assay [2] (setting [5]) was more than 1.5.

Turning to `Cc1noc(Cl)c1CC1c2ccccc2C(=O)N1Cc1ccc2[nH]nnc2c1` (stereo not drawn) [Compound 357, 2-((1H-benzo[d][1,2,3]triazol-5-yl)methyl)-3-((5-chloro-3-methylisoxazol-4-yl)methyl)isoindolin-1-one], the EC50 in assay [1] (setting [4]) lay in the range of 500 to 5000 nM. Also, the “Enzymatic Emax” value in assay [1] is given as “A (A>3)”. In addition, in assay [2] (setting [5]), the concentration for a half-maximal effect (EC50) was less than 500 nM and the maximal fold induction is more than 1.5.
